# Measured values: US7964598B2 (The J. David Gladstone Institutes, priority 1995, dated 2011)
# “And” between values parts separate entries of the source, which are not always exact repeats. Equal entries are not always repeated.
# Tests used:
# apoE3 [1] = experiment: Aβ production assay, B103-APP cells incubated with apoE3; assay type: cell-based, rat; conditions: FIG. 22
# Description: (§1) Aβ production assay. Stable neuroblastoma B103 cell lines transfected with a wildtype hAPP cDNA construct (B 103-APP) were selected by growing them in Dulbecco's modified Eagle's medium (DMEM) containing 10% fetal calf serum (FBS) and 400 μg/ml G418. A cell line expressing APP at similar levels in mouse brains has been identified by RNase protection assay (RPA) and was used in the studies described below. To determine Aβ production, B103-APP cells were incubated with serum-free minimal essential medium (MEM) containing N2 supplements with or without apoE isoforms for 24 h at 37° C. After incubation, 50 μl of medium was collected and assayed for Aβ levels with an ELISA method. The cells were lysed, and cellular proteins were determined by the Lowry method. AP production was normalized to cellular protein.
# (§2) Cell Culture. Rat neuroblastoma B103 cells stably expressing human wildtype APP (hAPP695wt) (Xu et al. ((1999) Proc. Natl. Acad. Sci. USA 96:7547-7552; Esposito, et al. (2004) J. Neurochem. 91:1260-1274) were generated in Dr. Lennart Mucke's laboratory at the Gladstone Institute of Neurological Disease and maintained in Dulbecco's modified Eagle's medium (DMEM) (GIBCO, Grand Island, N.Y.) containing 400 μg/ml G418, 10% fetal bovine serum, and 5% horse serum at 37° C. Twenty-four hours after plating into 48-well plates (1×10^5 cells per well), cells were washed twice with serum-free DMEM and cultured for another 24 h in DMEM containing 1% N-2 supplement (GIBCO) to induce differentiation. The cells were treated with either β-VLDL (25 μg/ml cholesterol), recombinant human apoE isoform-enriched β-VLDL (7.5 μg/ml apoE and 25 μg/ml cholesterol), or recombinant human apoE (7.5 μg/ml apoE) in fresh DMEM containing 1% N-2 supplement for an additional 24 h. In some experiments, RAP (25 nM or 1 μM) was added to the cells 1 h before apoE treatment.
# (§3) Aβ Assay. Aβ secreted into the medium was detected with a sandwich enzyme-linked immunosorbent assay (ELISA), using mAb 266 as a capturing antibody and 3D6 as a detecting antibody, as described. Johnson-Wood et al. ((1997) Proc. Natl. Acad. Sci. USA 94:1550-1555). Aβ was quantified from a standard curve (Aβ42; Bachem, Torrance, Calif.) and normalized by total cellular protein.
# [2] = tested on: apoE4 enhancement of Aβ production; experiment: Aβ production assay, B103-APP cells incubated with apoE4; assay type: cell-based, rat; conditions: FIG. 22
# Description: as §1, §2, §3
# apoE3 [3] = target: T1, apoE3 (Homo sapiens, UniProt P02649); experiment: Emulsion binding assay, apoE3; conditions: follow-up assay
# T1 construct: made in house
# T1 sequence (P02649 19-317): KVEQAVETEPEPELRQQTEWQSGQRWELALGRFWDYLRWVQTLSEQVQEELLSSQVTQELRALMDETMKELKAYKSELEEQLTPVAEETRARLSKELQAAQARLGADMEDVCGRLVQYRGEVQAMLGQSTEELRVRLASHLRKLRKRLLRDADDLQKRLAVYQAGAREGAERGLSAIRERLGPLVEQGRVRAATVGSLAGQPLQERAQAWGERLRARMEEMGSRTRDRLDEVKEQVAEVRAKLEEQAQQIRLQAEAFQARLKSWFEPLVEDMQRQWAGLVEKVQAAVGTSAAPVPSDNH
# Description: (§4) Preparation of emulsion particles. Triolein (160 mg) and L-alpha-Phosphatidylcholine (40 mg) are combined and dried under nitrogen. After the addition of 8 mls of buffer (10 mM Tris, 100 mM KCl, 1 mM EDTA, pH 8.0), the mixture is sonicated in a water bath to obtain a heterogeneous mix of emulsion particles. The particles are harvested by ultracentrifugation (TLA 100.2 rotor, 30,000 rpm for 30 minutes) and the subsequent lipid cake is removed by tube slicing and resuspended in 100 μt 20 mM Phosphate Buffer (PB). Triolein and phospholipid content are measured and total emulsion particle concentration is determined.
# (§5) Radiolabelling Freshly denatured and renatured Apolipoprotein E3 and E4 are radiolabelled using Bolton-Hunter Reagent [^125I] (ICN). Specific Activity is determined using Lowry method and Gamma 8000 counter.
# (§6) Binding Affinity Assay. […] In glass tubes, 25 μg of protein (with iodinated tracer) was reduced with 1% β-mercaptoethanol. Two hundred and fifty μg of emulsion particles and 2.5 μl of compound (10 mM stock) were added and the final mixture was brought up to 250 μl with 20 mM phosphate buffer (PB). The reaction mixture was then incubated in a 37° C. water bath for 2 hours before being transferred to 1.5 ml ultracentrifuge tubes. Finally, 50 μl of 60% sucrose was mixed with the sample and 400 μl 20 mM PB was carefully layered on top. Using a TLA 100.2 rotor, the tube was spun at 30,000 rpm for 30 minutes and subsequently cut to separate the floating emulsion particle layer from the free protein at the bottom of the tube. These fractions were then combined with the respective half of the actual tube and counted using a Gamma-8000. […] Protein-only assays yielded 94.5-96.6% of protein accumulated in the bottom portion of the tube. In emulsion particle-only assays, 94% of emulsion particles accumulated in the top portion of the tube.
# (§7) Preparation of Emulsion Particles and VLDL Binding Affinity Assay. VLDL-like emulsion particles were prepared using triolein (160 mg) and L-alpha-phosphatidylcholine (40 mg), as described. Dong and Weisgraber (1996) supra; and Dong et al. (1994) J. Biol. Chem. 269:22358-22365.
# apoE4 = target: T2, apoE4 (Homo sapiens, UniProt P02649, C130R); experiment: Emulsion binding assay for domain interaction, apoE4; conditions: for E4 + cpd n = 3, % bound / E4 + cpd n = 3, % free / E4 control, % bound / E4 control, % free: follow-up assay; for E4 control, % bound / E4 control, % free: second E4 control; for E4 + cpd, % bound / E4 + cpd, % free: initial assay, 2.5 μl of compound (10 mM stock) in 250 μl, 37° C. 2 hours
# T2 construct: made in house
# T2 sequence (P02649 19-317 C130R): as the sequence (P02649 19-317) above, with C112R counted along it
# Description: as §4, §5, §6, §7
# B103-APP cells = experiment: APP processing and Aβ production, B103-APP cells; assay type: cell-based, rat
# Description: as §1, §2
# In some experiments, cells were treated with lovastatin, as described but with a minor modification. Fassbender et al. (2001) Proc. Natl. Acad. Sci. USA 98:5856-5861. Briefly, cells were maintained in differentiation medium containing 4 μM lovastatin and 0.25 mM mevalonate for 24 h. After treatment for 5 min with 5 mM methyl-β-cyclodextrin, which depletes cell membrane cholesterol (Bodovitz and Klein (1996) J. Biol. Chem. 271:4436-4440; Kojro et al. (2001) Proc. Natl. Acad. Sci. USA 98:5815-5820), the cells were incubated in fresh differentiation medium containing lovastatin and mevalonate for 24 h. The conditioned medium was collected, and cellular cholesterol extracted with chloroform/methanol (Huang et al. (1994) Proc. Natl. Acad. Sci. USA 91:1834-1838) and quantitated with a kit from Abbott Laboratories (Abbott Park, Ill.).
# Detection of sAPPα. Media conditioned for 24 hours were normalized by protein content and subjected to SDS/PAGE. Proteins were then transferred onto nitrocellulose membranes. The sAPPα was detected by mAb 6E10 and visualized with an enhanced chemiluminescence system (Pierce, Rockford, Ill.).
# as §3
# Neuro-2a cells [4] = experiment: Aβ-induced apoptosis (DNA fragmentation assay); assay type: cell-based, mouse
# Description: DNA Fragmentation Assay—DNA fragmentation of apoptotic cells was determined with Cell Death Detection ELISA kits (Roche, Indianapolis, Ind.).
# FIG. 38. […] Control cells were not treated with Aβ1-42. Apoptotic cell death was measured with a DNA fragmentation assay. Values are the mean±S.D. of three separate experiments.
# FIGS. 39A and 39B. […] Lysosomal leakage was quantitated by assaying cytosolic 0-hexosaminidase activity. […] Conditioned media were prepared as described above. Apoptosis was quantitated by measuring DNA fragmentation.
# Neuro-2a cells [5] = experiment: Aβ-induced lysosomal leakage (cytosolic β-hexosaminidase); assay type: cell-based, mouse; conditions: 20 μM Aβ1-42
# Description: The cytosolic fraction was obtained by ultracentrifugation, and the cytosolic β-hexosaminidase activity was measured.
# Quantitation of the lysosomal enzyme β-hexosaminidase activity in the cytosol indicates lysosomal leakage. […] After incubation the cells were washed and cytosolic fractions were isolated as described in Materials and Methods. The enzymatic activity of β-hexosaminidase was assayed in 20 μg of cytosolic protein for each sample.
# Lysosomal leakage was quantitated by assaying cytosolic 0-hexosaminidase activity. […] Conditioned media were prepared as described above. Apoptosis was quantitated by measuring DNA fragmentation.
# [6] = β-VLDL 25 μg/ml cholesterol or lovastatin 4 μM
Compound,"E3 + compound, % bound (apoE3 [3]) [%]","E3 + compound, % free (apoE3 [3]) [%]","E4 + cpd n = 3, % bound (apoE4) [%]","E4 + cpd n = 3, % free (apoE4) [%]","E4 control, % bound (apoE4) [%]","E4 control, % free (apoE4) [%]","E4 + cpd, % bound (apoE4)","E4 + cpd, % free (apoE4)",further results
"5-chloro-2-(4-chloro-2-(3,4-dichloro phenylureido) [GIND32]",14,86,57,43,49,51,22% and 19%,78% and 81%,effect on apoE3 (Aβ production) (apoE3 [1]): no effect; apoE4 enhancement of Aβ production [2]: abolished completely
O.O=C([O-])c1ccccc1-c1c2cc(I)c(=O)c(I)c-2oc2c(I)c([O-])c(I)cc12.[Na+].[Na+] [Erythrosin B],20,80,57,43,26,74,11% and 10%,89% and 90%,
O=C(N[C@H](Cc1ccc(OCc2ccccc2)cc1)C(=O)O)OCc1ccccc1 [Z-D-Tyr (BZL)-OH],26,74,57,43,43,57,25% and 23%,75% and 77%,
"CC[C@H](C)C(=O)O[C@H]1C[C@@H](C)C=C2C=C[C@H](C)[C@H](CC[C@@H]3C[C@@H](O)CC(=O)O3)[C@H]21 [lovastatin, reference compound]",,,,,,,,,cellular cholesterol content (B103-APP cells; [6]): lowered; production of Aβ (B103-APP cells; [6]): decreased; secretion of sAPPα (B103-APP cells; [6]): increased
"Aβ1-42: Amyloid β1-42, aggregated before use",,,,,,,,,"DNA fragmentation (Neuro-2a cells [4]; apoE3-transfected cells, 20 μM Aβ1-42, 18 h): 110 % of that in Z-VAD-treated con; DNA fragmentation (Neuro-2a cells [4]; apoE4-transfected cells, 20 μM Aβ1-42, 18 h): ~250 % of that in Z-VAD-treated con; Aβ-induced DNA fragmentation (Neuro-2a cells [4]; neo-transfected cells in apoE3-conditioned medium, 20 μM Aβ1-42, 18 h): 202%; Aβ-induced DNA fragmentation (Neuro-2a cells [4]; neo-transfected cells in apoE4-conditioned medium, 20 μM Aβ1-42, 18 h): 314%; Aβ-induced DNA fragmentation (Neuro-2a cells [4]; neo-transfected cells in neo-conditioned medium, 20 μM Aβ1-42, 18 h): 232%; DNA fragmentation (Neuro-2a cells [4]; neo-transfected cells, 20 μM Aβ1-42, 18 h): ~140 % of that in Z-VAD-treated con; increase of cytosolic β-hexosaminidase activity (Neuro-2a cells [5]; apoE4-transfected cells): ~85%; increase of cytosolic β-hexosaminidase activity (Neuro-2a cells [5]; neo-transfected cells): ~40%"
Z-VAD,,,,,,,,,"DNA fragmentation, Z-VAD treatment alone (Neuro-2a cells [4]; compared with untreated control cells): no effect; Aβ-induced DNA fragmentation (Neuro-2a cells [4]; pretreatment with Z-VAD 100 μg/ml 2 h, all three cell lines): greatly reduced"
"apoE4-Thr-61: Thr-61 mutant of apoE4, lacks intramolecular domain interaction",,,,,,,,,"enhanced Aβ production (B103-APP cells; 7.5 μg/ml, 37° C., 24 h, compared with apoE3 or apoE4): abolished the enhanced Aβ production"
glycine cresol red [GIND29],33,67,57,43,48,52,23% and 29%,77% and 71%,effect on apoE3 (Aβ production) (apoE3 [1]): no effect; apoE4 enhancement of Aβ production [2]: abolished completely
